Several values for one entry are separate records, joined by “and”; a condition that tells them apart may be missing. Equal entries are not always repeated.
Columns and labels:
[1] = molecular target: Fibroblast growth factor receptor 3 (Homo sapiens) (UniProt P22607); conditions: Compound concentration 20.0 uM, Protein concentration 2.0 uM, Result type QC Liability
Peregrin (Homo sapiens) = molecular target: T1, Peregrin (Homo sapiens) (UniProt P55201); conditions: Compound concentration 20.0 uM, Protein concentration 2.0 uM, Result type QC Liability
T1 sequence (whole entry): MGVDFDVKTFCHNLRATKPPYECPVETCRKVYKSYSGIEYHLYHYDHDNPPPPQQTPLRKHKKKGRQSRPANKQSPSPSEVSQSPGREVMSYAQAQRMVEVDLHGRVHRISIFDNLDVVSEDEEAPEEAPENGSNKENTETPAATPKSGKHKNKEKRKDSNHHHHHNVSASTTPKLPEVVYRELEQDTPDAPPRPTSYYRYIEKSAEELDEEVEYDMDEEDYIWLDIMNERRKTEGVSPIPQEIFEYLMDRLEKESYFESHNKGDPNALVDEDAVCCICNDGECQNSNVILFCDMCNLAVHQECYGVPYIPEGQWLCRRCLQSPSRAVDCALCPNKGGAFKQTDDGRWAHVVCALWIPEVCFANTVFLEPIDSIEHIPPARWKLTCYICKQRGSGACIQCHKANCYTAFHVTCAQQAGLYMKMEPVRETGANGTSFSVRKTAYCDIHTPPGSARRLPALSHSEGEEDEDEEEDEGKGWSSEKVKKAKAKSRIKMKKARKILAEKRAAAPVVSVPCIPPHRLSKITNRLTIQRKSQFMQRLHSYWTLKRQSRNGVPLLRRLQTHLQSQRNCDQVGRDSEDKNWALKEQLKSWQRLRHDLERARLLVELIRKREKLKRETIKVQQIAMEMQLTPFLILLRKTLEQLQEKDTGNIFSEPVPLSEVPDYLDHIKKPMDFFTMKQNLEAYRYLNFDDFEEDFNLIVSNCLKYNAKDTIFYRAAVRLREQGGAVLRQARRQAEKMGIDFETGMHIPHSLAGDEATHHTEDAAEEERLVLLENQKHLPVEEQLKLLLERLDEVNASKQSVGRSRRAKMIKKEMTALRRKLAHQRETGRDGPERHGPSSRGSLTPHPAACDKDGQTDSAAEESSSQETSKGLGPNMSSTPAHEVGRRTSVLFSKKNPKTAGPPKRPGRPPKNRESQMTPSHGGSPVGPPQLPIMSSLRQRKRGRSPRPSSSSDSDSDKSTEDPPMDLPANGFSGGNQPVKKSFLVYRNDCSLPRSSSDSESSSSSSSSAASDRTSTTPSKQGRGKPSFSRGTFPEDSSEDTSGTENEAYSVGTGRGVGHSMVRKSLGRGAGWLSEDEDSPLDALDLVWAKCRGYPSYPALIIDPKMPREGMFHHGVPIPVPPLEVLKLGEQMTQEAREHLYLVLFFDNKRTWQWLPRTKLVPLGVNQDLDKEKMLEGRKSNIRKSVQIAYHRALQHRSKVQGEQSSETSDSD

Sequence of Fibroblast growth factor receptor 3 (Homo sapiens) (P22607 23-806 limits assumed): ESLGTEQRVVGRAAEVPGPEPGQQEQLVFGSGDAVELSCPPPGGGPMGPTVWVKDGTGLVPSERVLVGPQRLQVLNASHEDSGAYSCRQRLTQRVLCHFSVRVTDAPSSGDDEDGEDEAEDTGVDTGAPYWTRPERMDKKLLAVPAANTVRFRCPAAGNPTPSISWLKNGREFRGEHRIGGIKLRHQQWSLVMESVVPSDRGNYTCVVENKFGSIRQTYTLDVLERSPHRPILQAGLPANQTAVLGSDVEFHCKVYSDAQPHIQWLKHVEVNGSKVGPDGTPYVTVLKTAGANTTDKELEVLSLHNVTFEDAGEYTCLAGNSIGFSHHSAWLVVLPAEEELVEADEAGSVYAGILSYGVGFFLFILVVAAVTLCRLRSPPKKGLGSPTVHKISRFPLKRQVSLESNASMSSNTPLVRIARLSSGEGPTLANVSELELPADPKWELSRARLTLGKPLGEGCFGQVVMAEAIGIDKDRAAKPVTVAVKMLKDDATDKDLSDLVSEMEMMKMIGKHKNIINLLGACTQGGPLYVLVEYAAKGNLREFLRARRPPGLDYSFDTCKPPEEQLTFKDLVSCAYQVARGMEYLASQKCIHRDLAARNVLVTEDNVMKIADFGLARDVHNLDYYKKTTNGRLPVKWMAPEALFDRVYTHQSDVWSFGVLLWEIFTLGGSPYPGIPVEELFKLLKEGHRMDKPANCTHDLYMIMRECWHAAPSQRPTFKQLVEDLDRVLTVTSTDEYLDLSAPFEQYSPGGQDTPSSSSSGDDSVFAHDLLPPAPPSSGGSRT

CNS(=O)(=O)c1ccc(N(C)C)c(Nc2ncnc3cc(OC)c(OC)cc23)c1
ΔTm [1]: 0.55 °C
ΔTm (Peregrin (Homo sapiens)): -0.25 °C

C[C@H](CCC(=O)O)[C@H]1CC[C@H]2[C@@H]3CC[C@@H]4C[C@H](O)CC[C@]4(C)[C@H]3C[C@H](O)[C@]12C
ΔTm [1]: 0.63 °C
ΔTm (Peregrin (Homo sapiens)): -1.82 °C

Cc1cc2c(-c3ccco3)cnc(N[C@@H]3CCN(C)C[C@H]3C(=O)NC3CCCCC3)c2[nH]c1=O
ΔTm [1]: 0.65 °C
ΔTm (Peregrin (Homo sapiens)): -0.68 °C

Nc1ncc2c(n1)-c1c([nH]c3ccc(C4=CCOCC4)cc13)CCC2
ΔTm [1]: 1.34 °C
ΔTm (Peregrin (Homo sapiens)): -2.26 °C

CN[C@@H](C)C(=O)N[C@H](C(=O)N1CCC[C@H]1C(=O)Nc1sc(-c2ncco2)nc1-c1ccccc1)C1CCCCC1
ΔTm [1]: 0.43 °C
ΔTm (Peregrin (Homo sapiens)): -1.67 °C

Cc1cc(-c2nc(-c3ccc(OC(F)(F)F)cc3)no2)nn1Cc1ccnc(N2CCN(C3CC3)CC2)c1
ΔTm [1]: 1.28 °C
ΔTm (Peregrin (Homo sapiens)): -10.7 °C

CN1CCC(F)(Cn2cnc(-c3ccc(F)cn3)c2-c2ccnc3[nH]ccc23)CC1
ΔTm [1]: 0.5 °C
ΔTm (Peregrin (Homo sapiens)): -0.88 °C

CO[C@H](C)CN1CC[C@@]2(C)c3ccc(O)cc3C[C@@H]1C2(C)C
ΔTm [1]: 0.41 °C
ΔTm (Peregrin (Homo sapiens)): -2.03 °C

CCc1ccc(-c2ncn(CC3(F)CCN(C)CC3)c2-c2ccnc3[nH]ccc23)nc1
ΔTm [1]: 0.58 °C
ΔTm (Peregrin (Homo sapiens)): -1.47 °C

CC(=O)Nc1nc(CN2CCC[C@H](Cc3cc(C)nc(C)c3)C2)cs1
ΔTm [1]: 0.78 °C
ΔTm (Peregrin (Homo sapiens)): -1.25 °C

COCCc1ccc(-c2c(C)nc3c(N4CCOCC4)ccnn23)cn1
ΔTm [1]: 1.27 °C
ΔTm (Peregrin (Homo sapiens)): -2.19 °C

CC(C)(C[C@H]1CN(S(=O)(=O)c2cccc(C(F)(F)F)c2)c2cc(-c3cc(F)cc(OC(F)F)c3)ccc2O1)C(=O)O
ΔTm [1]: -0.98 °C
ΔTm (Peregrin (Homo sapiens)): -3.42 °C

O=C(Nc1ccc(Cl)c(-c2ccccn2)c1)c1cccc(COc2ccc(Br)cc2CNCCO)c1
ΔTm [1]: 0.69 °C
ΔTm (Peregrin (Homo sapiens)): -0.98 °C

CC(C)(O)CNC(=O)N1C(=O)N(c2cccc(C(F)(F)F)c2)C2=C(C(=O)CC2)[C@H]1c1ccc(C#N)cc1
ΔTm [1]: 0.72 °C
ΔTm (Peregrin (Homo sapiens)): -1.94 °C

CC#CC(=O)N1CCN(c2nc(-c3ccc(Oc4ccccc4)cc3)c(C(N)=O)s2)CC1
ΔTm [1]: -1.02 °C
ΔTm (Peregrin (Homo sapiens)): -1.23 °C

CCCCCNC(=O)N1CCC(CN(Cc2ccc(Cl)cc2)Cc2ccc([N+](=O)[O-])s2)C1 (stereo unspecified)
ΔTm [1]: 0.77 °C
ΔTm (Peregrin (Homo sapiens)): -0.19 °C

Cc1cc(Cn2c(N3CC4(CNC4)C3)nc3cc(Cl)cc(N4CCN(C)CC4)c32)cc(C)c1F
ΔTm [1]: 1.32 °C
ΔTm (Peregrin (Homo sapiens)): -2.07 °C

CC(C)(O)c1coc(S(=O)(=O)NC(=O)Nc2c3c(cc4c2CCC4)CCC3)c1
ΔTm [1]: 0.84 °C
ΔTm (Peregrin (Homo sapiens)): -2.87 °C

COc1cc(-c2cc([C@H](O)C3CC3)n3ncnc(N)c23)ccc1CO
ΔTm [1]: 1.71 °C
ΔTm (Peregrin (Homo sapiens)): -2.32 °C

COc1cc2ncnc(Nc3ccc(F)c(Cl)c3)c2cc1OCCN(C)C[C@H](C)O
ΔTm [1]: 1.03 °C
ΔTm (Peregrin (Homo sapiens)): -1.85 °C

Cc1cc(Cn2c(N3CC4(CNC4)C3)nc3c(N4CCN(C)CC4)cc(Cl)cc32)cc(C)c1F
ΔTm [1]: 0.86 °C
ΔTm (Peregrin (Homo sapiens)): -3.49 °C

C[C@@]1(Cc2ccc(C#N)cc2)C(=O)N(c2cc(Cl)cc(Cl)c2)c2ncc(C(=O)NC3(c4nc(C5CCC5)no4)CC3)n21
ΔTm [1]: 3.32 °C
ΔTm (Peregrin (Homo sapiens)): 3.75 °C

C[C@H](CCC(=O)O)[C@H]1CC[C@H]2[C@@H]3[C@@H](O)C[C@@H]4C[C@H](O)CC[C@]4(C)[C@H]3CC[C@]12C
ΔTm [1]: 0.96 °C
ΔTm (Peregrin (Homo sapiens)): -1.31 °C

CCO[C@H](COc1ccc(C(F)(F)F)cc1)CSc1ccc(OCC(=O)O)c(C)c1
ΔTm [1]: 0.48 °C
ΔTm (Peregrin (Homo sapiens)): -0.87 °C

CCOC(=O)/N=C(\N)c1ccc(OCc2cccc(COc3ccc(C(C)(C)c4ccc(OC(=O)OCC)cc4)cc3)c2)cc1
ΔTm [1]: 0.54 °C
ΔTm (Peregrin (Homo sapiens)): -8.55 °C

Oc1c(CN2CCCC2)cc(COCc2ccccc2)c2cccnc12
ΔTm [1]: 0.61 °C
ΔTm (Peregrin (Homo sapiens)): -2.08 °C

CCCCC[C@H](O)/C=C/[C@H]1[C@H](O)CC(=O)[C@@H]1CCCCCCC(=O)O
ΔTm [1]: 0.41 °C
ΔTm (Peregrin (Homo sapiens)): -2.24 °C

C=C1/C(=C\C=C2/CCC[C@]3(C)[C@@H]([C@H](C)CCCC(C)(C)O)CC[C@@H]23)C[C@@H](O)C[C@@H]1O
ΔTm [1]: 1.25 °C
ΔTm (Peregrin (Homo sapiens)): -2.59 °C

CC(C)(C)c1cc(NC(=O)c2csc(Nc3ccc(Cl)cc3)n2)no1
ΔTm [1]: 1.46 °C
ΔTm (Peregrin (Homo sapiens)): -0.02 °C

Cn1cncc1-c1cn(-c2cccc(C(=O)Nc3cccc(C(F)(F)F)c3)c2)nn1
ΔTm [1]: -9.32 °C
ΔTm (Peregrin (Homo sapiens)): -1.49 °C

CC(=O)Nc1c(F)cc(C(=O)N[C@H]2CC[C@H](O)CC2)cc1O[C@@H](C)c1ccccc1
ΔTm [1]: 0.45 °C
ΔTm (Peregrin (Homo sapiens)): -0.36 °C

CN1CCc2cc(Nc3ncc(C(F)(F)F)c(NCc4cc[nH]n4)n3)ccc2C1
ΔTm [1]: 8.22 °C
ΔTm (Peregrin (Homo sapiens)): -1.01 °C

CCc1c(-c2ccc3[nH]ncc3c2)cnc(N)c1-c1ccc(O)cc1
ΔTm [1]: 2.78 °C
ΔTm (Peregrin (Homo sapiens)): -1.61 °C

N#Cc1cccc(-c2c[nH]c3ncnc(N4CCOCC4)c23)c1
ΔTm [1]: 2.14 °C
ΔTm (Peregrin (Homo sapiens)): -1.1 °C

CC1(C)C[C@@H]1C(=O)N/C(=C\CCCCSC[C@H](N)C(=O)O)C(=O)O
ΔTm [1]: 0.5 °C
ΔTm (Peregrin (Homo sapiens)): -2.3 °C

CCS(=O)(=O)c1cc2cc(C[C@@](O)(CC(C)(C)c3ccc(F)cc3C(N)=O)C(F)(F)F)[nH]c2cn1
ΔTm [1]: 0.69 °C and 0.88 °C
ΔTm (Peregrin (Homo sapiens)): -2.1 °C and -0.15 °C

Cc1csc(-c2nnc(Nc3ccc(Oc4ncccc4-c4ccnc(N)n4)cc3)c3ccccc23)c1
ΔTm [1]: -1.73 °C
ΔTm (Peregrin (Homo sapiens)): -5.77 °C

C1=Cc2ccccc2C(=C2CCN(CCCCc3nnn[nH]3)CC2)c2ccccc21
ΔTm [1]: 0.36 °C
ΔTm (Peregrin (Homo sapiens)): -1.48 °C

CNC(=O)c1ccc2c(c1)ncn2-c1ccc(CC(=O)OC(C)(C)C)cc1
ΔTm [1]: 4.13 °C
ΔTm (Peregrin (Homo sapiens)): -1.38 °C

Cc1c(CN2CCC3(CC2)CN(c2ncnc4sc(CC(F)(F)F)cc24)C3)ccc2c1cc(C#N)n2CC(N)=O
ΔTm [1]: 0.67 °C
ΔTm (Peregrin (Homo sapiens)): -1.41 °C

Cc1csc(S(=O)(=O)N(CC(C)C)c2cc3c(cc2OCc2ccc(C(=O)O)cc2)CCC3)n1
ΔTm [1]: 0.12 °C
ΔTm (Peregrin (Homo sapiens)): -3.17 °C

CCN1C(=O)N(c2c(F)c(OC)cc(OC)c2F)Cc2cnc3[nH]c(CN4CCOCC4)cc3c21
ΔTm [1]: 11.8 °C
ΔTm (Peregrin (Homo sapiens)): -0.68 °C

COC1(C#Cc2ccc(Cl)c(-c3ncc4c(n3)-c3sc(NC(C)=O)nc3CC4)c2)CCN(C)CC1
ΔTm [1]: 0.77 °C
ΔTm (Peregrin (Homo sapiens)): -1.7 °C

NC(=O)c1ccccc1Nc1nc(-c2ccc(N3CCOCC3)cc2)cc2ncccc12
ΔTm [1]: 4.32 °C
ΔTm (Peregrin (Homo sapiens)): -0.11 °C

Cc1cc(C2CCCNC2)ccc1Nc1ncc(Br)c(NCc2cccc3c2C(C)(C)C(=O)N3)n1 (stereo unspecified)
ΔTm [1]: 2.52 °C
ΔTm (Peregrin (Homo sapiens)): -1.21 °C

Cc1cnc(-c2cnc(NCCNc3ccc(C#N)cn3)nc2-c2ccc(Cl)cc2Cl)[nH]1
ΔTm [1]: 1.41 °C
ΔTm (Peregrin (Homo sapiens)): -2.19 °C

Cc1cc([N+](=O)[O-])c(NS(=O)(=O)c2cccc(C(=O)O)c2)cc1-c1cccnc1
ΔTm [1]: 0.67 °C
ΔTm (Peregrin (Homo sapiens)): 0.37 °C

CC(=O)N1CCN([C@H]2CCC[C@@H](NC(=O)c3cc4c(F)ccc(C)c4[nH]3)C2)CC1
ΔTm [1]: 0.6 °C
ΔTm (Peregrin (Homo sapiens)): -1.84 °C

CNC(=O)c1ccc2c(c1)NC(=O)/C2=C(\Nc1ccc(CN2CCCCC2)cc1)c1ccccc1
ΔTm [1]: 3.97 °C
ΔTm (Peregrin (Homo sapiens)): -0.66 °C

C[C@@H]1CN(CC(=O)N2CC(C)(C)c3nc(CO)c(Cc4ccc(F)cc4)cc32)[C@@H](CN2CCOC[C@H]2C)CN1
ΔTm [1]: 0.45 °C
ΔTm (Peregrin (Homo sapiens)): -2.93 °C

CNc1ncc2cc(-c3ccc(-c4ncccc4F)cc3Cl)c(=O)n(C[C@H]3OC[C@H](N)CO3)c2n1
ΔTm [1]: 2.03 °C
ΔTm (Peregrin (Homo sapiens)): -1.11 °C

O=C(Nc1snnc1C(=O)Nc1ccc(N2CCCC2)cc1)c1cncc(C(F)(F)F)c1
ΔTm [1]: 0.45 °C
ΔTm (Peregrin (Homo sapiens)): 0.2 °C

Cc1cc(Cl)ccc1S(=O)(=O)NC[C@H]1C2CCC(CC2)[C@@H]1/C=C\CCCC(=O)O
ΔTm [1]: 0.12 °C
ΔTm (Peregrin (Homo sapiens)): -2.88 °C

NCc1ccc(OCCCc2sc(-c3ccc4c(c3)/C(=N/Nc3nc5ccccc5s3)CCC4)nc2C(=O)O)cc1
ΔTm [1]: 0.58 °C
ΔTm (Peregrin (Homo sapiens)): -3.06 °C

Cc1ncsc1-c1ccc(CNC(=O)[C@@H]2C[C@H](O)CN2C(=O)[C@@H](NC(=O)C2(F)CC2)C(C)(C)C)c(OCCOc2ccc(CN3CCN(c4cc(-c5ccccc5O)nnc4N)CC3)cc2)c1 (relative stereo)
ΔTm [1]: -0.13 °C
ΔTm (Peregrin (Homo sapiens)): 4.18 °C

COc1cc(Oc2nc(-c3ccc(NC(=O)C4CCOC4)cc3)nn3c(C)nc(C)c23)cc(OC)c1OC (stereo unspecified)
ΔTm [1]: 1.34 °C
ΔTm (Peregrin (Homo sapiens)): -1.59 °C

COc1cc(-c2cncc(-c3ccc(N4CCN(C(C)C)CC4)cc3)c2C)cc(F)c1C(N)=O
ΔTm [1]: 0.64 °C
ΔTm (Peregrin (Homo sapiens)): -1.51 °C

Cc1[nH]nc(C(F)(F)F)c1Cc1sc2c(c1C(=O)N1C[C@](C)(O)CO1)c(=O)n(C)c(=O)n2C(C)C
ΔTm [1]: 0.52 °C
ΔTm (Peregrin (Homo sapiens)): -1.85 °C
